For this assay, the target named is T1, recombinant human mPGES-1 (Homo sapiens, UniProt O14684).
T1 construct: made in house; host or cells: Rosetta E. coli (membrane/microsome fraction)
T1 sequence (O14684 1-152): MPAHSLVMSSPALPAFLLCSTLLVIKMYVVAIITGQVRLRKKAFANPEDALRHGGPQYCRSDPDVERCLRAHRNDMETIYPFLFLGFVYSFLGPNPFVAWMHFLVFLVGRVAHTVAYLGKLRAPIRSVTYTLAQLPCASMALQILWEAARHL
The assay is described as follows: Assay A: mPGES-1 enzyme assay (HTRF detection of PGE2). Particulars: biological assay A; microsomes from E. coli expressing recombinant human mPGES-1; read-out: mPGES-1 inhibitory effect IC50. It is filed as biochemical. An excerpt: The aim of this assay is to determine the affinity of a test compound for the mPGES-1 enzyme.
• 1. Riendeau, D., R. Aspiotis, D. Ethier, Y. Gareau, E. Grimm, J. Guay, S. Guiral, H. Juteau, J. Mancini, N. Methot, J. Rubin, and R. Friesen, Inhibitors of the inducible microsomal prostaglandin E2 synthase (mPGES-1) derived from MK-886. Bioorg Med Chem Lett, 2005. 15(14): p. 3352-3355. • 2. Cote, B., L. Boulet, C. Brideau, D. Claveau, D. Ethier, R. Frenette, M. Gagnon, A. Giroux, J. Guay, S. Guiral, J. Mancini, E. Martins, F. Masse, N. Methot, D. Riendeau, J. Rubin, D. Xu, H. Yu, Y. Ducharme, and R. Friesen, Substituted phenanthrene imidazoles as potent, selective, and orally active mPGES-1 inhibitors. Bioorg Med Chem Lett, 2007. 17(24): p. 6816-6820. Assay A: mPGES-1 Enzyme Assay List of Reagents Used: • Glutathione (Sigma, G-4251) • Freeze culture in Rosetta E coli expression strain. • LB growth media with Ampillicillin (Amp) final concentration in culture 50 μg/mL • Chloroamphenicol stock 34 mg/mL (chloro) final concentration in culture 34 μg/mL • Sterile growth flasks for 500 mL-1 liter cultures • 0.1 M KP, buffer pH 7.4 • 9.25% HCl • PGH2 (0.25 mM) • Fe (II) Cl2 tetrahydrate, 99% (Sigma, 220229) • 384-well plate with compounds • 96-well plate, polypropylene (Thermo fast 96 skirted VWR) • 384-well plate polypropylene PCR plate (Greiner 785201) • Greiner 384-well plate pp (In vitro cat. no. 781280) • Adhesive sealing film for 96-well plates (Sigma-Aldrich) • Aluminium foil (PCR foil, 310-0030-127-471 from Labora) • PBS (GIBCO 14040) • Prostaglandin E2 Assay (Cisbio, cat. no. 62P2APEC) • Biomek FX robot (Beckman Coulter) • Biomek NX robot (Beckman Coulter) • Multidrop; micro or combi (ThermoLabsystems) • Plate reader: Safire2 (Tecan)
Microsomes from Rosetta E. coli bacteria expressing recombinant human mPGES-1 can be derived as described below:
Inoculate 5 mL LB with Amp and Chloro with bacteria from freeze culture. Incubate overnight at 37° C. with 200 rpm. Thereafter, inoculate 500-800 mL LB containing Amp and Chloro with the 5 mL on culture and grow to OD640 of 0.6-0.8. Chill the culture to +4° C. before induction. Induce the culture with IPTG at a final concentration of 400 μM. Express the protein at room temp 18-23° C. with 200 rpm shaking overnight.
The following steps can be performed on the following day: • 1. Spin down the cells in 250 mL centrifuge flasks for 15 min at 7000 rpm • 2. Dissolve the pellet from 250 mL culture in 12.5 mL homogenization buffer • 3. Disintegrate the cells by sonication, 4×10 seconds at 35% amplitude • 4. Add 2.5 mL MgCl2 (100 mM) and DNase 12.5 μL (0.8 mg/mL) and incubate on ice for 30 min • 5. Spin down the bacteria debris and save the supernatant, 7000 rpm for 15 min • 6. Isolate the protein containing membranes in the supernatant by ultracentrifugation 45000×g for 1 hour. • 7. Discard the supernatant and dissolve the pellet in 20 mM KPi buffer and aliquot the enzyme and store aliquots at −80° C.
Before each experiment is performed an aliquot of the enzyme is thawed and it can then be dissolved in 0.1 M KP, pH 7.4 buffer containing 2.5 mM GSH. 50 μL of this enzyme solution is subsequently dispensed in a 384-well plate at room temperature. 0.5 μL of the inhibitor dissolved in DMSO is thereafter added to each well and incubated for 25 minutes at room temperature. Subsequently, 2 μL of PGH2 dissolved in an appropriate solvent is added to each well and after one minute at room temperature, the acidified stop solution containing FeCl2 is added. 4 μL of the total volume is transferred to a separate plate and diluted 750-fold in two separate steps before quantification of PGE2.
In order to quantitate the amount of PGE2 that has been formed, a homogenous time resolved fluorescent (HTRF) detection of PGE2 can be performed by the use of a commercially available kit from CisBio essentially according to the manufacturer's protocol. […]
Background: TR-FRET usually uses a lanthanide donor and a delayed reading to cut background.
A word on the IC50: it is the concentration needed to halve the response being measured. `O=C(NCc1ccc(Cl)c(Nc2nc3cc(Cl)c(N4CCCC(C(F)(F)F)C4)cc3[nH]2)c1)C1(C(F)(F)F)CC1` (centres unmarked) [Example 72]: the IC50 was found to be 11 nM.
For the molecule `CC(=O)N1CCN(c2cc3c(cc2Cl)nc(Nc2cc(CNC(=O)C4(C(F)(F)F)CC4)ccc2Cl)n3C)CC1` [Example 73], the IC50 was 61 nM.
The result for `CC(=O)N1CCN(c2cc3[nH]c(Nc4cc(CNC(=O)C5(C(F)(F)F)CC5)ccc4Cl)nc3cc2Cl)CC1` [Example 74] reads 144 nM; that for `O=C(NCc1ccc(Cl)c(Nc2nc3cc(Cl)c(N4CCC(C(F)(F)F)CC4)cc3[nH]2)c1)C1(C(F)(F)F)CC1` [Example 75], 8.7 nM.
Turning to `Cn1c(Nc2cc(CNC(=O)C3(C(F)(F)F)CC3)ccc2Cl)nc2cc(Cl)c(N3CCC(c4ccccc4)CC3)cc21` [Example 76, N-{4-Chloro-3-[5-chloro-1-methyl-6-(4-phenyl-piperidin-1-yl)-1H-benzimidazol-2-ylamino]-benzyl}-1-trifluoromethyl-cyclopropanamide], the IC50 amounted to 3.1 nM.
Turning to `COC1CCN(c2cc3c(cc2Cl)nc(Nc2cc(CNC(=O)C4(C(F)(F)F)CC4)ccc2Cl)n3C)CC1` [Example 77], the IC50 was found to be 10 nM.
The result for `Cn1c(Nc2cc(CNC(=O)C3(C(F)(F)F)CC3)ccc2Cl)nc2cc(Cl)c(N3CCC(C)(C)CC3)cc21` [Example 78] reads 1.7 nM; that for `Cn1c(Nc2cc(CNC(=O)C3(C(F)(F)F)CC3)ccc2Cl)nc2cc(Cl)c(N3CCC(F)(F)CC3)cc21` [Example 79], 2.4 nM.
The result for `CN(C)CCn1c(Nc2cc(CNC(=O)C3(C(F)(F)F)CC3)ccc2Cl)nc2cc(Cl)c(N3CCC(C(F)(F)F)CC3)cc21` [Example 80] reads 54 nM.
Regarding `COCCn1c(Nc2cc(CNC(=O)C3(C(F)(F)F)CC3)ccc2Cl)nc2cc(Cl)c(N3CCC(C(F)(F)F)CC3)cc21` [Example 81], the IC50 amounted to 6.7 nM.
The result for `Cn1c(Nc2cc(CNC(=O)C3(C(F)(F)F)CC3)ccc2Cl)nc2cc(C#N)c(N3CCC(C(F)(F)F)CC3)cc21` [Example 82, N-{4-Chloro-3-[5-cyano-1-methyl-6-(4-trifluoromethyl-piperidin-1-yl)-1H-benzimidazol-2-ylamino]-benzyl}-1-trifluoromethyl-cyclopropanamide] reads 1.7 nM.
For `Cn1c(Nc2cc(CNC(=O)C3(C(F)(F)F)CC3)ccc2Cl)nc2cc(Cl)c(N3CCN(c4ccc(C(F)(F)F)cc4)CC3)cc21` [Example 83, N-{4-Chloro-3-[5-chloro-1-methyl-6-(4-(4-trifluoromethylphenyl)-piperazin-1-yl)-1H-benzimidazol-2-ylamino]-benzyl}-1-trifluoromethyl-cyclopropanamide], the half-inhibitory concentration (IC50) turned out to be 1.3 nM.
For the molecule `Cn1c(Nc2cc(CNC(=O)C3(C(F)(F)F)CC3)ccc2Cl)nc2cc(F)c(N3CCC(C(F)(F)F)CC3)c(F)c21` [Example 84, N-{4-Chloro-3-[5,7-difluoro-1-methyl-6-(4-trifluoromethyl-piperidin-1-yl)-1H-benzimidazol-2-ylamino]-benzyl}-1-trifluoromethyl-cyclopropanamide], the IC50 was found to be 7.3 nM.
In the case of `Cn1c(Nc2cc(CNC(=O)C3(C(F)(F)F)CC3)ccc2Cl)nc2cc(F)c(N3CCC(C)(C)CC3)c(F)c21` [Example 85], the IC50 is 20 nM.
With `Cn1c(Nc2cc(CNC(=O)C3(C(F)(F)F)CC3)ccc2Cl)nc2cc(F)c(N3CCC(C(F)(F)F)CC3)cc21` [Example 86, N-{4-Chloro-3-[5-fluoro-1-methyl-6-(4-trifluoromethyl-piperidin-1-yl)-1H-benzimidazol-2-ylamino]-benzyl}-1-trifluoromethyl-cyclopropanamide], the IC50 worked out at 7.1 nM.
For `Cn1c(Nc2cc(CNC(=O)C3(C(F)(F)F)CC3)ccc2Cl)nc2cc(F)c(N3CCC(C)(C)CC3)cc21` [Example 87], the IC50 was 14 nM.
For `O=C(NCc1ccc(Cl)c(Nc2nc3cc(Cl)c(N4CCC(C(F)(F)F)CC4)cc3n2CC2CC2)c1)C1(C(F)(F)F)CC1` [Example 88], the half-maximal inhibitory concentration (IC50) came out at 5.3 nM.
The result for `O=C(NCc1ccc(Cl)c(Nc2nc3cc(Cl)c(N4CCC(C(F)(F)F)CC4)cc3n2CC(F)(F)F)c1)C1(C(F)(F)F)CC1` [Example 89] reads 6.1 nM.
As for `Cn1c(Nc2cc(CNC(=O)C3(C(F)(F)F)CC3)ccc2Cl)nc2cc(Cl)c(N3CCN(c4ccccc4)CC3)cc21` [Example 90], the IC50 was 2.2 nM.
On to `Cn1c(Nc2cc(CNC(=O)C3(C(F)(F)F)CC3)ccc2Cl)nc2cc(Cl)c(N3CCC(c4ccc(F)cc4)CC3)cc21` [Example 91], for which the IC50 came to 3.6 nM.
In the case of `N#Cc1c(N2CCCC(C(F)(F)F)C2)ccc2nc(Nc3cc(CNC(=O)C4(C(F)(F)F)CC4)ccc3Cl)[nH]c12` (centres unmarked) [Example 93, N-{4-Chloro-3-[4-cyano-5-(3-trifluoromethyl-piperidin-1-yl)-1H-benzimidazol-2-ylamino]-benzyl}-1-trifluoromethyl-cyclopropanamide], the IC50 amounted to 17 nM.
`Cn1c(Nc2cc(CNC(=O)C(C)(F)F)ccc2Cl)nc2cc(Cl)c(N3CCC(C(F)(F)F)CC3)cc21` [Example 94, N-{4-Chloro-3-[5-chloro-1-methyl-6-(4-trifluoromethyl-piperidin-1-yl)-1H-benzimidazol-2-ylamino]-benzyl}-2,2-difluoro-propionamide]: the IC50 is 3.5 nM.
The result for `Cn1c(Nc2cc(CNC(=O)C(C)(F)F)ccc2Cl)nc2cc(Cl)c(N3CCC(c4ccccc4)CC3)cc21` [Example 95] reads 2.1 nM.
The result for `Cn1c(Nc2cc(CNC(=O)C(C)(F)F)ccc2Cl)nc2cc(Cl)c(N3CCN(c4ccc(C(F)(F)F)cc4)CC3)cc21` [Example 96] reads 4.1 nM; that for `Cn1c(Nc2cc(CNS(=O)(=O)C(C)(C)C)ccc2Cl)nc2cc(Cl)c(N3CCC(C(F)(F)F)CC3)cc21` [Example 99, N-(4-Chloro-3-(5-chloro-1-methyl-6-(4-trifluoromethyl-piperidin-1-yl)-1H-benzo[d]imidazol-2-ylamino)benzyl)-2-methylpropane-2-sulfonamide], 4 nM.
Consider `Cn1c(Nc2cc(CNS(=O)(=O)C(C)(C)C)ccc2Cl)nc2cc(Cl)c(N3CCN(c4ccc(C(F)(F)F)cc4)CC3)cc21` [Example 100], for which the IC50 turned out to be 7.7 nM.
`Cn1c(Nc2cc(CNC(=O)C3(C(F)(F)F)CC3)ccc2C(F)(F)F)nc2cc(Cl)c(N3CCC(C(F)(F)F)CC3)cc21` [Example 101, N-{4-Trifluoromethyl-3-[5-chloro-1-methyl-6-(4-trifluoromethyl-piperidin-1-yl)-1H-benzimidazol-2-ylamino]-benzyl}-1-trifluoromethyl-cyclopropanamide]: the IC50 came to 2.8 nM.
Consider `Cn1c(Nc2cc(CNC(=O)C3CC3)ccc2C(F)(F)F)nc2cc(Cl)c(N3CCC(C(F)(F)F)CC3)cc21` [Example 102], for which the IC50 amounted to 2.4 nM.
Turning to `Cn1c(Nc2cc(CNC(=O)c3c(F)cccc3Cl)ccc2C(F)(F)F)nc2cc(Cl)c(N3CCC(C(F)(F)F)CC3)cc21` [Example 103], the IC50 turned out to be 2 nM.

The values are drawn from patent US8466186B2, “Compounds” (Boehringer Ingelheim International GmbH, priority 2010, dated 2013).
